Laboratory results published in US9469650B2, “Melampomagnolide B derivatives” (BOARD OF TRUSTEES OF THE UNIVERSITY OF ARKANSAS, priority 2013, dated 2016).

Assays:
[1] = tested on: M14; assay: panel of 60 human tumor cell lines, growth inhibition (Melanoma); conditions: Homo sapiens; for GI50: M14; for CC50: M14, read-out: LC50; for IC (TGI): M14, read-out: TGI
[2] = tested on: SNB-75; assay: panel of 60 human tumor cell lines, growth inhibition (CNS Cancer); conditions: Homo sapiens; for GI50: SNB-75; for CC50: SNB-75, read-out: LC50; for IC (TGI): SNB-75, read-out: TGI
[3] = tested on: T-47D; assay: panel of 60 human tumor cell lines, growth inhibition (Breast Cancer); conditions: Homo sapiens, T47D; for CC50: read-out: LC50; for IC (TGI): read-out: TGI
[4] = tested on: MDA-MB-231/ATCC; assay: as above; conditions: Homo sapiens; for GI50: MDA-MB-231; for CC50: MDA-MB-231, read-out: LC50; for IC (TGI): MDA-MB-231, read-out: TGI
[5] = tested on: CAKI-1; assay: panel of 60 human tumor cell lines, growth inhibition (Renal Cancer); conditions: Homo sapiens; for GI50: CAKI-1; for CC50: CAKI-1, read-out: LC50; for IC (TGI): CAKI-1, read-out: TGI
[6] = tested on: SK-MEL-5; assay: panel of 60 human tumor cell lines, growth inhibition (Melanoma); conditions: Homo sapiens; for GI50: SK-MEL-5; for CC50: SK-MEL-5, read-out: LC50; for IC (TGI): SK-MEL-5, read-out: TGI
[7] = tested on: SK-MEL-28; assay: as above; conditions: Homo sapiens; for GI50: SK-MEL-28; for CC50: SK-MEL-28, read-out: LC50; for IC (TGI): SK-MEL-28, read-out: TGI
[8] = tested on: NCI/ADR-RES; assay: panel of 60 human tumor cell lines, growth inhibition (Ovarian Cancer); conditions: Homo sapiens; for CC50: read-out: LC50; for IC (TGI): read-out: TGI
[9] = tested on: SK-MEL-2; assay: panel of 60 human tumor cell lines, growth inhibition (Melanoma); conditions: Homo sapiens; for GI50: SK-MEL-2; for CC50: SK-MEL-2, read-out: LC50; for IC (TGI): SK-MEL-2, read-out: TGI
[10] = tested on: OVCAR-3; assay: panel of 60 human tumor cell lines, growth inhibition (Ovarian Cancer); conditions: for GI50 / CC50 / IC (TGI): Homo sapiens; for GI50 / Percent Growth: OVCAR-3; for CC50: OVCAR-3, read-out: LC50; for IC (TGI): OVCAR-3, read-out: TGI
[11] = tested on: LOX IMVI; assay: panel of 60 human tumor cell lines, growth inhibition (Melanoma); conditions: Homo sapiens; for CC50: read-out: LC50; for IC (TGI): read-out: TGI
[12] = tested on: MOLT-4; assay: panel of 60 human tumor cell lines, growth inhibition (Leukemia); conditions: Homo sapiens; for GI50: MOLT-4; for CC50: MOLT-4, read-out: LC50; for IC (TGI): MOLT-4, read-out: TGI
[13] = tested on: PC-3; assay: panel of 60 human tumor cell lines, growth inhibition (Prostate Cancer); conditions: Homo sapiens; for GI50: PC-3; for CC50: PC-3, read-out: LC50; for IC (TGI): PC-3, read-out: TGI
[14] = tested on: MCF7; assay: panel of 60 human tumor cell lines, growth inhibition (Breast Cancer); conditions: Homo sapiens; for GI50: MCF7, MCF7; for CC50: MCF7, read-out: LC50; for IC (TGI): MCF7, read-out: TGI
[15] = tested on: SN12C; assay: panel of 60 human tumor cell lines, growth inhibition (Renal Cancer); conditions: Homo sapiens; for CC50: read-out: LC50; for IC (TGI): read-out: TGI
[16] = tested on: HCT-116; assay: panel of 60 human tumor cell lines, growth inhibition (Colon Cancer); conditions: Homo sapiens; for GI50: HCT-116, HCT-116; for CC50: HCT-116, read-out: LC50; for IC (TGI): HCT-116, read-out: TGI
[17] = tested on: A549/ATCC; assay: panel of 60 human tumor cell lines, growth inhibition (Non-Small Cell Lung Cancer); conditions: Homo sapiens; for GI50: A549; for CC50: A549, read-out: LC50; for IC (TGI): A549, read-out: TGI
[18] = tested on: UO-31; assay: panel of 60 human tumor cell lines, growth inhibition (Renal Cancer); conditions: Homo sapiens; for GI50: UO-31; for CC50: UO-31, read-out: LC50; for IC (TGI): UO-31, read-out: TGI
[19] = tested on: SW-620; assay: panel of 60 human tumor cell lines, growth inhibition (Colon Cancer); conditions: Homo sapiens; for GI50: SW-620, SW-620; for CC50: SW-620, read-out: LC50; for IC (TGI): SW-620, read-out: TGI

C=C1C(=O)O[C@H]2[C@H]1CC/C(COC(=O)NCCN1CCOCC1)=C\CC[C@@]1(C)O[C@@H]21 [JVM 57, ((1aR,7aS,10aS,10bS,E)-1a-methyl-8-methylene-9-oxo-1a,2,3,6,7,7a,8,9,10a,10b-decahydrooxireno[2′,3′:9,10]-cyclodeca[1,2-b]furan-5-yl)-methyl(2-morpholinoethyl)carbamate] showed a GI50 [1] of 7.97 µM, a CC50 [1] of 58.5 µM and an IC (TGI) [1] of 23.1 µM. For the same molecule, the GI50 [2] was 19.5 µM, the CC50 [2] was > 100 µM and the IC (TGI) [2] was > 100 µM. It also gave a GI50 [3] of 6.32 µM, a CC50 [3] of 71.5 µM and an IC (TGI) [3] of 23.2 µM. The GI50 [4] was 13.7 µM, the CC50 [4] was 64.3 µM and the IC (TGI) [4] was 29.7 µM. It also gave a GI50 [5] of 4.31 µM, a CC50 [5] of 52.7 µM and an IC (TGI) [5] of 17.7 µM. It also gave a GI50 [6] of 12.7 µM, a CC50 [6] of 50.9 µM and an IC (TGI) [6] of 25.4 µM. The GI50 [7] was 10.5 µM, the CC50 [7] was 47.2 µM and the IC (TGI) [7] was 22.2 µM. The GI50 [8] was 52.3 µM, the CC50 [8] was > 100 µM and the IC (TGI) [8] was > 100 µM. It also gave a GI50 [9] of 13.2 µM, a CC50 [9] of 65.5 µM and an IC (TGI) [9] of 29.4 µM. For the same molecule, the GI50 [10] was 6.2 µM, the CC50 [10] was 44.1 µM and the IC (TGI) [10] was 18.7 µM. For the same molecule, the “Percent Growth” value ([10]; Log10 Concentration −4.0) was −98%, the “Percent Growth” value ([10]; Log10 Concentration −5.0) was 37% and the “Percent Growth” value ([10]; Log10 Concentration −6.0) was 101%. For the same molecule, the “Percent Growth” value ([10]; Log10 Concentration −7.0) was 109%, the “Percent Growth” value ([10]; Log10 Concentration −8.0) was 109% and the GI50 [11] was 4.84 µM. The GI50 ([11]; 5-dose assay) was 4.84 µM, the CC50 [11] was 47 µM and the IC (TGI) [11] was 17.5 µM. The GI50 [12] was 5 µM, the CC50 [12] was > 100 µM and the IC (TGI) [12] was 22.9 µM. The GI50 [13] was 16.6 µM, the CC50 [13] was 85.8 µM and the IC (TGI) [13] was 37.8 µM. It also gave a GI50 [14] of 3.54 µM, a GI50 ([14]; 5-dose assay) of 3.54 µM and a CC50 [14] of 53.1 µM. The IC (TGI) [14] was 14.4 µM, the GI50 [15] was 18.8 µM and the CC50 [15] was > 100 µM. It also gave an IC (TGI) [15] of 55.2 µM, a GI50 [16] of 2.87 µM and a GI50 ([16]; 5-dose assay) of 2.87 µM. The CC50 [16] was 38.9 µM, the IC (TGI) [16] was 10.7 µM and the GI50 [17] was 28.5 µM. For the same molecule, the CC50 [17] was > 100 µM, the IC (TGI) [17] was > 100 µM and the GI50 [18] was 10.7 µM. The CC50 [18] was 54.5 µM, the IC (TGI) [18] was 24.1 µM and the GI50 [19] was 3.48 µM. It also gave a GI50 ([19]; 5-dose assay) of 3.48 µM, a CC50 [19] of 64.8 µM and an IC (TGI) [19] of 13.9 µM.
Work on C=C1C(=O)O[C@H]2[C@H]1CC/C(COC(=O)OCCN(C)C)=C\CC[C@@]1(C)O[C@@H]21 [JVM 2-35] yielded a GI50 [1] of 3.71 µM, a CC50 [1] of 45.6 µM and an IC (TGI) [1] of 16.4 µM. It also gave a GI50 [2] of 4.96 µM, a CC50 [2] of 50.7 µM and an IC (TGI) [2] of 21.5 µM. The GI50 [3] was 2.95 µM, the CC50 [3] was 58.8 µM and the IC (TGI) [3] was 12.4 µM. For the same molecule, the GI50 [4] was 5.86 µM, the CC50 [4] was 56.9 µM and the IC (TGI) [4] was 21.3 µM. For the same molecule, the GI50 [5] was 3.22 µM, the CC50 [5] was 39.9 µM and the IC (TGI) [5] was 15.6 µM. The GI50 [6] was 11.5 µM, the CC50 [6] was 53.8 µM and the IC (TGI) [6] was 24.9 µM. The GI50 [7] was 4.27 µM, the CC50 [7] was 48.3 µM and the IC (TGI) [7] was 17.9 µM. The GI50 [8] was 23.7 µM, the CC50 [8] was > 100 µM and the IC (TGI) [8] was 84.6 µM. It also gave a GI50 [9] of 15.2 µM, a CC50 [9] of 86.6 µM and an IC (TGI) [9] of 36.3 µM. The GI50 [10] was 3.31 µM, the CC50 [10] was 35.3 µM and the IC (TGI) [10] was 11.5 µM. The “Percent Growth” value ([10]; Log10 Concentration −4.0) was −96%, the “Percent Growth” value ([10]; Log10 Concentration −5.0) was 6% and the “Percent Growth” value ([10]; Log10 Concentration −6.0) was 97%. The “Percent Growth” value ([10]; Log10 Concentration −7.0) was 106%, the “Percent Growth” value ([10]; Log10 Concentration −8.0) was 98% and the GI50 ([11]; NCI five dose) was 5.16 µM. The CC50 [11] was 47.5 µM, the IC (TGI) [11] was 18.2 µM and the GI50 [12] was 5.5 µM. The CC50 [12] was > 100 µM, the IC (TGI) [12] was 26.1 µM and the GI50 [13] was 14 µM. The CC50 [13] was 64.5 µM, the IC (TGI) [13] was 30 µM and the GI50 ([14]; NCI five dose) was 2.92 µM. It also gave a CC50 [14] of 56.3 µM, an IC (TGI) [14] of 13 µM and a GI50 [15] of 13.2 µM. For the same molecule, the CC50 [15] was > 100 µM, the IC (TGI) [15] was 39.7 µM and the GI50 ([16]; NCI five dose) was 2.66 µM. The CC50 [16] was 33.6 µM, the IC (TGI) [16] was 11.3 µM and the GI50 [17] was 16.3 µM. The CC50 [17] was 71.6 µM, the IC (TGI) [17] was 34.2 µM and the GI50 [18] was 4.58 µM. It also gave a CC50 [18] of 48.3 µM, an IC (TGI) [18] of 18.6 µM and a GI50 ([19]; NCI five dose) of 3.58 µM. The CC50 [19] was 50.6 µM and the IC (TGI) [19] was 15 µM.
